Data reported in patent US12503463B2, “Aliphatic acid amide derivative” (Sumitomo Pharma Co., Ltd., priority 2019, dated 2025).

assay: Test 3-1: metabolic stability test in human hepatic microsome; type: in vitro ADME; settings: Test 3-1: microsome 0.1 mg/mL, test compound 0.1 μmol/L, 37° C., 30 minutes
Method: Test 3-1: Metabolic Stability Test in Human Hepatic Microsome
The metabolic stability of the present compound in human hepatic microsome was evaluated as mentioned below. Human hepatic microsome was obtained from Xenontech. Human hepatic microsome, NADPH, and each test compound were mixed in 25 mmol/L phosphate buffer solution (pH 7.4) to reach the following concentrations as shown below, and the mixture was incubated at 37° C. for 30 minutes. • Human hepatic microsome: 0.1 mg/mL • NAPDH: 3.2 mmol/L • Test compound: 0.1 μmol/L
The residual ratio of test compound in each sample after 30 minutes was measured by LC-MS, and the metabolic stability in human hepatic microsome was calculated from the following formula. Metabolic stability in human hepatic microsome(mL/min/mg protein)=−LN(residual ratio)/30/0.1

Metabolic stability in human hepatic microsome [mL/min/mg protein]	SMILES
0.089	CCN(CCN1CCC(c2noc3cc(F)ccc23)CC1)C(=O)CO [Example 12]
<0.05	CCN(CCN1CCC(c2c[nH]c3cc(F)ccc23)CC1)C(=O)[C@H](C)O [Example 20, (2S)-N-Ethyl-N-{2-[4-(6-fluoro-1H-indol-3-yl)piperidin-1-yl]ethyl}-2-hydroxypropanamide]
<0.05	CC(O)C(=O)N(CCN1CCC(c2noc3cc(F)ccc23)CC1)CC1CC1 (stereo not drawn) [Example 30]
<0.05	CCN(CCN1CCC(c2noc3cc(F)ccc23)CC1)C(=O)C(O)C(F)(F)F (stereo not drawn) [Example 34]
<0.05	CCN(CCN1CCC(c2noc3cc(F)c(C)cc23)CC1)S(=O)(=O)CCO [Example 58]
<0.05	CCN(CCN1CCC(c2noc3cc(F)ccc23)CC1)C(=O)[C@@H](C)O [Example 1, (2R)-N-Ethyl-N-{2-[4-(6-fluoro-1,2-benzoisoxazol-3-yl)piperidin-1-yl]ethyl}-2-hydroxypropanamide]
<0.05	CCN(CCN1CCC(c2noc3ccc(F)cc23)CC1)C(=O)[C@H](C)O [Example 45]
<0.05	CCN(CCN1CCC(c2noc3cc(F)ccc23)CC1)C(=O)C1CC(O)C1 (stereo not drawn) [Example 46]
<0.05	CCN(CCN1CCC(c2noc3cc(F)ccc23)CC1)C(=O)C1CN(C)CCC1O (stereo not drawn) [Example 76, N-Ethyl-N-{2-[4-(6-fluoro-1,2-benzoisoxazol-3-yl)piperidin-1-yl]ethyl}-4-hydroxy-1-methylpiperidine-3-carboxamide]
<0.05	CCN(CCN1CCC(c2noc3cc(F)ccc23)CC1)C(=O)C1CNCC1O (stereo not drawn) [Example 66]
<0.05	CCN(CCN1CCN(c2noc3ccccc23)CC1)C(=O)C(C)O (stereo not drawn) [Example 26]
<0.05	CCN(CCCN1CCC(c2noc3cc(F)ccc23)CC1)S(=O)(=O)CCO [Example 53]
<0.05	CCN(CCCN1CCC(c2noc3ccccc23)CC1)S(=O)(=O)C(C)CO (stereo not drawn) [Example 54]
0.053	CCN(CCN1CCC(c2noc3cc(F)ccc23)CC1)C(=O)C(C)(C)O [Example 6]
<0.05	CCN(CCN1CCC(c2noc3cc(F)ccc23)CC1)C(=O)C(O)COC (stereo not drawn) [Example 18, N-Ethyl-N-{2-[4-(6-fluoro-1,2-benzoisoxazol-3-yl)piperidin-1-yl]ethyl}-2-hydroxy-3-methoxypropanamide]
<0.05	CCN(CCN1CCN(c2noc3cc(F)ccc23)CC1)C(=O)C(C)O (stereo not drawn) [Example 27]
<0.05	CCN(CCN1CCC(n2ncc3cc(F)ccc32)CC1)C(=O)CCO [Example 2, N-Ethyl-N-{2-[4-(5-fluoro-1H-indazol-1-yl)piperidin-1-yl]ethyl}-3-hydroxypropanamide]
<0.05	CCN(CCN1CCC(c2c[nH]c3cc(F)ccc23)CC1)C(=O)CCO [Example 48]
<0.05	CCN(CCN1CCC(c2noc3cc(F)ccc23)CC1)C(=O)C1CNCCC1O (stereo not drawn) [Example 67]
<0.05	CCN(CCN1CCC(c2noc3ccccc23)CC1)S(=O)(=O)CCO [Example 61]
<0.05	CCN(CCN1CCC(c2c[nH]c3ccccc23)CC1)C(=O)C(C)O (stereo not drawn) [Example 22, N-Ethyl-2-hydroxy-N-{2-[4-(1H-indol-3-yl)piperidin-1-yl]ethyl}propanamide]

Metabolic stability in human hepatic microsome [mL/min/mg protein]	SMILES
<0.05	CCN(CCN1CCC(c2noc3ccccc23)CC1)C(=O)C(C)O (stereo not drawn) [Example 25]
0.059	CCN(CCCN1CCN(c2noc3cc(F)ccc23)CC1)S(=O)(=O)C(C)CO (stereo not drawn) [Example 55]
<0.05	CCN(CCN1CCC(c2noc3cc(F)ccc23)CC1)C(=O)C1CCC(O)CC1 (stereo not drawn) [Example 9]
<0.05	CCN(CCN1CCC(c2noc3cc(F)ccc23)CC1)C(=O)CC(C)O (stereo not drawn) [Example 10]
<0.05	CCN(CCN1CCC(c2c[nH]c3ccccc23)CC1)C(=O)[C@@H](C)O [Example 49]
<0.05	CCCN(CCN1CCC(c2noc3cc(F)ccc23)CC1)C(=O)C(C)O (stereo not drawn) [Example 39]
<0.05	CCN(CCN1CCC(c2noc3cc(F)ccc23)CC1)C(=O)C1(O)CC1 [Example 24]
<0.05	CCN(CCN1CCC(c2c[nH]c3cc(F)ccc23)CC1)S(=O)(=O)CCO [Example 62]
<0.05	[2H]C(C)(O)C(=O)N(CC)CCN1CCC(c2noc3cc(F)ccc23)CC1 (stereo not drawn) [Example 40]
0.08	CCN(CCN1CCC(c2noc3cc(F)ccc23)CC1)C(=O)C(C)(C)CO [Example 7]
<0.05	CCN(CCN1CCC(c2noc3cc(F)ccc23)CC1)C(=O)[C@H]1NCC[C@H]1O [Example 68]
<0.05	CCN(CCN1CCC(c2c[nH]c3ccccc23)CC1)C(=O)CCO [Example 47]
<0.05	CCN(CCCN1CCC(c2noc3cc(F)ccc23)CC1)S(=O)(=O)C(C)CO (stereo not drawn) [Example 56]
<0.05	CCN(CCN1CCC(c2noc3cc(F)ccc23)CC1)C(=O)[C@H]1CC[C@@H](O)CC1 [Example 44]
<0.05	CCN(CCN1CCC(n2ncc3cc(F)ccc32)CC1)C(=O)[C@@H](C)O [Example 3, (2R)-N-Ethyl-N-{2-[4-(5-fluoro-1H-indazol-1-yl)piperidin-1-yl]ethyl}-2-hydroxypropanamide]
0.06	CCN(CCN1CCC(c2c[nH]c3ccccc23)CC1)S(=O)(=O)CCO [Example 57]
<0.05	CC(C)N(CCN1CCC(c2noc3cc(F)ccc23)CC1)C(=O)CCO [Example 35]
<0.05	CC(C)N(CCN1CCC(c2noc3cc(F)ccc23)CC1)C(=O)[C@H](C)O [Example 41]
<0.05	CCN(CCN1CCC(n2ncc3cc(F)ccc32)CC1)C(=O)[C@H](C)O [Example 21, (2S)-N-Ethyl-N-{2-[4-(5-fluoro-1H-indazol-1-yl)piperidin-1-yl]ethyl}-2-hydroxypropanamide]
<0.05	CC[C@@H](O)C(=O)N(CC)CCN1CCC(c2noc3cc(F)ccc23)CC1 [Example 29]
<0.05	CCN(CCN1CCC(n2ccc3cc(F)ccc32)CC1)C(=O)C(C)O (stereo not drawn) [Example 50]
